Assay results reported in PubChem BioAssay AID256 (DTP/NCI, 2004).
Where “and” joins values, the source holds several entries; their conditions need not be identical. Equal values may be shown once. Toxic doses and inconclusive results are not listed. How the source made its calls: active means survival T/C of 150% or more; inactive means T/C below 125% in these data.

Test system: CD2F1 mice, L1210 leukemia ip, survival T/C
Experiment: NCI In Vivo Anticancer Drug Screen. Data for tumor model L1210 Leukemia (intraperitoneal) in CD2F1 (CDF1) mice
Conditions: higher = longer survival
Outline: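 Compound-dosed mice with transplantable tumor versus matched vehicle controls; endpoint ratio T/C reported.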

[1] = endpoint: mean survival time, dose: 100.0 mg/kg/injection, schedule: Q04DX003 (ip), vehicle: saline with Tween-80
[2] = endpoint: mean survival time, dose: 100.0 mg/kg/injection, schedule: Q01DX009 (ip), vehicle: saline with Tween-80
[3] = endpoint: mean survival time, dose: 100.0 mg/kg/injection, schedule: Q04DX002 (ip), vehicle: saline with Tween-80
[4] = endpoint: mean survival time, dose: 100.0 mg/kg/injection, schedule: Q01DX001 (ip), vehicle: saline
[5] = endpoint: mean survival time, dose: 400.0 mg/kg/injection, schedule: Q04DX003 (ip), vehicle: saline with Tween-80
[6] = endpoint: mean survival time, dose: 200.0 mg/kg/injection, schedule: Q04DX003 (ip), vehicle: saline with Tween-80
[7] = endpoint: mean survival time, dose: 100.0 mg/kg/injection, schedule: Q01DX001 (ip), vehicle: saline with Tween-80
[8] = endpoint: mean survival time, dose: 200.0 mg/kg/injection, schedule: Q01DX001 (ip), vehicle: saline with Tween-80
[9] = endpoint: mean survival time, dose: 50.0 mg/kg/injection, schedule: Q01DX009 (ip), vehicle: saline with Tween-80
[10] = endpoint: mean survival time, dose: 400.0 mg/kg/injection, schedule: Q01DX001 (ip), vehicle: saline with Tween-80
[11] = endpoint: mean survival time, dose: 200.0 mg/kg/injection, schedule: Q04DX002 (ip), vehicle: saline with Tween-80
[12] = endpoint: mean survival time, dose: 400.0 mg/kg/injection, schedule: Q04DX002 (ip), vehicle: saline with Tween-80
[13] = endpoint: mean survival time, dose: 200.0 mg/kg/injection, schedule: Q01DX009 (ip), vehicle: saline with Tween-80
[14] = endpoint: mean survival time, dose: 100.0 mg/kg/injection, schedule: Q01DX009 (ip), vehicle: Klucel (hydroxypropylcellulose) (HPC)
[15] = endpoint: mean survival time, dose: 200.0 mg/kg/injection, schedule: Q01DX009 (ip), vehicle: Klucel (hydroxypropylcellulose) (HPC)

Measured: T/C

Clc1c(CI)ccc(CI)c1Cl
inactive: endpoint: mean survival time, dose: 25.0 mg/kg/injection, schedule: Q04DX003 (ip), vehicle: saline with Tween-80 95 % of control | endpoint: mean survival time, dose: 50.0 mg/kg/injection, schedule: Q04DX003 (ip), vehicle: saline with Tween-80 97 % of control | [1] 102 % of control

O=C(Nc1ccccc1O)/C(Cl)=C/Cl
inactive: [2] 104 % of control

CC1(C)OCC2OC=CC(=O)C2O1 (centres undefined)
inactive: endpoint: median survival time, dose: 25.0 mg/kg/injection, schedule: Q01DX009 (ip), vehicle: suspension in saline 94 % of control | endpoint: median survival time, dose: 50.0 mg/kg/injection, schedule: Q01DX009 (ip), vehicle: suspension in saline 103 % of control | endpoint: median survival time, dose: 100.0 mg/kg/injection, schedule: Q01DX009 (ip), vehicle: suspension in saline 101 % of control | endpoint: median survival time, dose: 200.0 mg/kg/injection, schedule: Q01DX009 (ip), vehicle: suspension in saline 97 % of control | endpoint: median survival time, dose: 400.0 mg/kg/injection, schedule: Q01DX009 (ip), vehicle: suspension in saline 104 % of control

CSC(SC)=C1C(=O)NC(=O)NC1=O
inactive: endpoint: median survival time, dose: 3.12 mg/kg/injection, schedule: Q01DX009 (ip), vehicle: saline 101 % of control | endpoint: median survival time, dose: 6.25 mg/kg/injection, schedule: Q01DX009 (ip), vehicle: saline 112 % of control | endpoint: median survival time, dose: 12.5 mg/kg/injection, schedule: Q01DX009 (ip), vehicle: saline 109 % of control | endpoint: median survival time, dose: 25.0 mg/kg/injection, schedule: Q01DX009 (ip), vehicle: saline 109 % of control | endpoint: median survival time, dose: 50.0 mg/kg/injection, schedule: Q01DX009 (ip), vehicle: saline 116 % of control

CCCCOP(=O)(N=C=S)OCCCC
inactive: endpoint: mean survival time, dose: 25.0 mg/kg/injection, schedule: Q04DX002 (ip), vehicle: saline with Tween-80 94 % of control | endpoint: mean survival time, dose: 50.0 mg/kg/injection, schedule: Q04DX002 (ip), vehicle: saline with Tween-80 102 % of control | [3] 90 % of control and 96 % of control

CN(C)c1ccc(Cc2cc(O)c3c(c2O)C(=O)c2ccccc2C3=O)cc1
inactive: endpoint: mean survival time, dose: 100.0 mg/kg/injection, schedule: Q01DX009 (ip), vehicle: saline sonified 93 % of control | endpoint: mean survival time, dose: 200.0 mg/kg/injection, schedule: Q01DX009 (ip), vehicle: saline sonified 100 % of control | endpoint: mean survival time, dose: 400.0 mg/kg/injection, schedule: Q01DX009 (ip), vehicle: saline sonified 96 % of control

C=C(Br)C(=O)O
inactive: [4] 93 % of control | endpoint: mean survival time, dose: 200.0 mg/kg/injection, schedule: Q01DX001 (ip), vehicle: saline 98 % of control

C[C@]1(O)CC[C@H]2[C@@H]3CCC4=CC(=O)CC[C@]4(C)[C@@]3(Cl)[C@@H](O)C[C@@]21C
inactive: endpoint: mean survival time, dose: 100.0 mg/kg/injection, schedule: Q04DX003 (ip), vehicle: saline sonified 101 % of control | endpoint: mean survival time, dose: 176.0 mg/kg/injection, schedule: Q04DX003 (ip), vehicle: saline with Tween-80 91 % of control | endpoint: mean survival time, dose: 200.0 mg/kg/injection, schedule: Q04DX003 (ip), vehicle: saline sonified 107 % of control | endpoint: mean survival time, dose: 264.0 mg/kg/injection, schedule: Q04DX003 (ip), vehicle: saline with Tween-80 96 % of control | [5] 94 % of control

COc1ccc(OC)c(C2N(Cc3ccc(N(C)C)cc3)CCCN2Cc2ccc(N(C)C)cc2)c1
inactive: [1] 90 % of control | [6] 87 % of control

C/C(=C\c1ccccc1)C(=O)c1ccccc1
inactive: endpoint: mean survival time, dose: 100.0 mg/kg/injection, schedule: Q04DX003 (ip), vehicle: Klucel (hydroxypropylcellulose) (HPC) 106 % of control | endpoint: mean survival time, dose: 200.0 mg/kg/injection, schedule: Q04DX003 (ip), vehicle: Klucel (hydroxypropylcellulose) (HPC) 101 % of control | endpoint: mean survival time, dose: 400.0 mg/kg/injection, schedule: Q04DX003 (ip), vehicle: Klucel (hydroxypropylcellulose) (HPC) 98 % of control

O=[N+]([O-])c1cc(Cl)c(Cl)cc1[N+](=O)[O-]
inactive: [7] 90 % of control | [8] 90 % of control

O=C(CO)c1ccc([N+](=O)[O-])cc1
inactive: endpoint: mean survival time, dose: 3.12 mg/kg/injection, schedule: Q01DX009 (ip), vehicle: saline with Tween-80 98 % of control and 101 % of control | endpoint: mean survival time, dose: 6.25 mg/kg/injection, schedule: Q01DX009 (ip), vehicle: saline with Tween-80 96 % of control and 101 % of control | endpoint: mean survival time, dose: 12.5 mg/kg/injection, schedule: Q01DX009 (ip), vehicle: saline with Tween-80 98 % of control and 101 % of control | endpoint: mean survival time, dose: 25.0 mg/kg/injection, schedule: Q01DX009 (ip), vehicle: saline with Tween-80 95 % of control and 96 % of control | [9] 101 % of control | [2] 95 % of control and 101 % of control

O=C(NNC(=O)NC1OCC(O)C(O)C1O)Nc1ccccc1 (centres undefined)
inactive: [1] 101 % of control | [6] 98 % of control | [5] 98 % of control

O=C(OC1C=Cc2ccccc21)c1ccc([N+](=O)[O-])cc1 (centres undefined)
inactive: [7] 97 % of control | [8] 90 % of control | [10] 97 % of control

COc1ccc(COC(=O)Nc2ccccc2[N+](=O)[O-])cc1
inactive: [3] 91 % of control | [11] 87 % of control | [12] 91 % of control

CCCCCCC(=O)CCCCCC/C=C/CC(O)C(O)C(N)(CO)C(=O)O (centres undefined)
inactive: endpoint: mean survival time, dose: 12.5 mg/kg/injection, schedule: Q04DX002 (ip), vehicle: saline with Tween-80 86 % of control

O=C(c1ccccc1)C1CC1C(=O)c1ccccc1 (centres undefined)
inactive: [3] 100 % of control | [11] 112 % of control | [12] 100 % of control

Nc1c(C(=O)NOCc2ccccc2)ncn1C1CCCC1
inactive: endpoint: mean survival time, dose: 50.0 mg/kg/injection, schedule: Q01DX001 (ip), vehicle: other 104 % of control | endpoint: mean survival time, dose: 100.0 mg/kg/injection, schedule: Q01DX001 (ip), vehicle: other 102 % of control

CC(=O)NCc1ccc2c(c1)OCO2
inactive: [7] 98 % of control | [8] 111 % of control | [10] 106 % of control

c1ccc2c(c1)CN(C1CCCCC1)CO2
inactive: [9] 98 % of control | [2] 97 % of control | [13] 97 % of control

Cc1nnn2ccccc12
inactive: [4] 95 % of control

O=C(O)c1cc(Cc2ccc(O)c(C(=O)O)c2)ccc1O (tested in a mixture with another compound)
inactive: endpoint: median survival time, dose: 6.25 mg/kg/injection, schedule: Q01DX009 (ip), vehicle: Klucel (hydroxypropylcellulose) (HPC) 101 % of control | endpoint: median survival time, dose: 12.5 mg/kg/injection, schedule: Q01DX009 (ip), vehicle: Klucel (hydroxypropylcellulose) (HPC) 104 % of control | endpoint: median survival time, dose: 25.0 mg/kg/injection, schedule: Q01DX009 (ip), vehicle: Klucel (hydroxypropylcellulose) (HPC) 104 % of control | endpoint: median survival time, dose: 50.0 mg/kg/injection, schedule: Q01DX009 (ip), vehicle: Klucel (hydroxypropylcellulose) (HPC) 97 % of control | endpoint: median survival time, dose: 100.0 mg/kg/injection, schedule: Q01DX009 (ip), vehicle: Klucel (hydroxypropylcellulose) (HPC) 96 % of control | endpoint: median survival time, dose: 200.0 mg/kg/injection, schedule: Q01DX009 (ip), vehicle: Klucel (hydroxypropylcellulose) (HPC) 89 % of control

O=C(CNC(=O)Nc1ccc(F)cc1)N/N=C/c1c(O)ccc2ccccc12
inactive: [9] 92 % of control | [2] 96 % of control | [13] 96 % of control

O=C(O)c1ccccc1C(=O)NCCc1c[nH]c2ccccc12
inactive: [2] 104 % of control | [1] 96 % of control | [13] 96 % of control | [6] 96 % of control | endpoint: mean survival time, dose: 400.0 mg/kg/injection, schedule: Q01DX009 (ip), vehicle: saline with Tween-80 102 % of control | [5] 95 % of control

Oc1cc(N2CC2)c(O)cc1N1CC1
inactive: endpoint: mean survival time, dose: 0.07 mg/kg/injection, schedule: Q01DX009 (ip), vehicle: saline 111 % of control | endpoint: mean survival time, dose: 0.15 mg/kg/injection, schedule: Q01DX009 (ip), vehicle: saline 116 % of control

C=C[Si]12OCCN(CCO1)CCO2
inactive: endpoint: mean survival time, dose: 12.5 mg/kg/injection, schedule: Q01DX009 (ip), vehicle: Klucel (hydroxypropylcellulose) (HPC) 97 % of control and 105 % of control | endpoint: mean survival time, dose: 25.0 mg/kg/injection, schedule: Q01DX009 (ip), vehicle: Klucel (hydroxypropylcellulose) (HPC) 95 % of control and 96 % of control | endpoint: mean survival time, dose: 50.0 mg/kg/injection, schedule: Q01DX009 (ip), vehicle: Klucel (hydroxypropylcellulose) (HPC) 92 % of control and 100 % of control | [14] 92 % of control and 94 % of control | [15] 88 % of control and 94 % of control | endpoint: mean survival time, dose: 400.0 mg/kg/injection, schedule: Q01DX009 (ip), vehicle: Klucel (hydroxypropylcellulose) (HPC) 88 % of control and 95 % of control

Cc1ccc(NCC2(/N=C/c3ccccc3)OC(CO)C(O)C2O)cc1 (centres undefined)
inactive: [14] 109 % of control | endpoint: mean survival time, dose: 177.0 mg/kg/injection, schedule: Q01DX009 (ip), vehicle: saline with Tween-80 113 % of control | [15] 118 % of control | endpoint: mean survival time, dose: 266.0 mg/kg/injection, schedule: Q01DX009 (ip), vehicle: Klucel (hydroxypropylcellulose) (HPC) 120 % of control
